Reference: US10316056B2, “Chemical compounds and use thereof for improving muscular quality” (BIOPHYTIS, priority 2014, dated 2019)

Columns and labels:
[1] = system: myostatin gene expression in C2C12 cells; assay: Inhibition of myostatin expression in C2C12 cells (qPCR); format: cell-based; details: Mus musculus, percentage myostatin gene expression in cells in contact with the compounds related to control cells, C2C12, 6 h
Procedure, shortened: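 C2C12 myoblasts differentiated to myotubes for 5 days in 2% serum, then treated 6 h with compounds in serum-free, low-glucose (1 g/l) DMEM; IGF-1 100 ng/ml as reference. Myostatin mRNA quantified by RT-qPCR, expressed relative to untreated control as R=2^-ΔΔCt.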

[2] = rat, in vivo, po; for Cexp (coefficient of exposure): male, Wistar
Experimental: (§1) The pharmacokinetics of the compounds were evaluated orally using male Wistar rats (Charles River). […] The novel compounds according to the invention were administered at a dose of 10 mg/kg of body weight in the form of a mixture of 4 to 6 products. After administration, the blood was sampled from the tail at t=0.25 h, 0.5 h, 1 h, 3 h, 6 h and 8 h. The blood samples were centrifuged and the plasmas removed.

[3] = in vivo; details: male, Wistar, rat, po, 10 mg/kg
Experimental: as §1

[4] = system: S6 kinase (S6K1) phosphorylation in C2C12 cells; assay: Phosphorylation of the S6 kinase in C2C12 cells (ELISA pS6K T389), protein synthesis; format: cell-based, mouse; details: Mus musculus, C2C12, 2 h; for activity at 10 µM: read-out: Protein synthesis (percentage increase in S6K phosphorylation in muscle cells); for activity: test compounds and 20E reference (10 μM), read-out: S6K1 phosphorylation level
Experimental: After several experiments in which the C2C12 cells differentiated into myotubes were incubated in the presence of IGF-1 or 20E for 2 h 30 or 6 h, two screening tests were developed. Thus, the phosphorylation of the S6 protein kinase and the expression of the myostatin gene were studied in order to determine their modulation by a growth hormone or an ecdysone and to characterize these modulations from a statistical point of view.
The C2C12 myoblast cells (ATCC CRL-1772) are seeded into 6-well plates at a density of 170 000 cells per well and cultured in a DMEM medium containing glucose in a proportion of 4.5 g/l and supplemented with fetal calf serum (10%) and with antibiotics (penicillin and streptomycin). Forty-eight hours later, the myoblasts are induced to differentiate by partial serum depletion (2% instead of 10%) for 5 days. The cells are then placed in a medium which is glucose-depleted (DMEM containing 1 g/l of glucose) and serum-free in the presence of the test molecules or of the references (100 ng/ml IGF-1 or 10 μM 20E) for 2 h. At the end of the experiment, the cells are lysed in a commercial lysis buffer (Invitrogen FNN0011) supplemented with a commercial mixture of anti-proteases (Roche 05056489001). After centrifugation, the cytoplasmic fraction containing the soluble proteins is kept and the protein concentration is determined using a commercial kit (Biorad 500-0114), the principle of which is composed of assaying by the Lowry method. The assaying of the S6 kinase phosphorylation is carried out using a commercial ELISA (Enzyme Linked ImmunoSorbent Assay) kit (Cell signaling 7063). Briefly, 50 μg of protein lysate are deposited in the wells of a 96-well microplate and incubated overnight at 4° C. with the solution of antigen specific for the pS6 kinase threonine 389 antibody. The binding of the antigen to the bottom of the wells is done electrostatically. The solution of antibody to be assayed (pS6K T389) is then incubated at 37° C. in the wells for 2 hours. The antibodies bind specifically to the antigen. The wells are then washed with washing buffer in order to remove the antigen-specific primary antibodies to be assayed which are in excess. The third step consists in binding the detection antibody. The solution of detection antibodies is incubated at 37° C. in the wells for 1 hour. The wells are then washed in order to remove the excess detection antibodies. It should be noted that the detection antibodies are coupled to an enzyme which, in the presence of its substrate, converts it into a reaction product that can be detected and measured by virtue of the appearance of a coloration. […] The appearance of a blue coloration in the substrate indicates the presence of the antibody to be assayed. In order to prevent any saturation phenomenon, a stop solution (generally containing […]) is added and brings about a change in coloration, which goes from blue to yellow. The strength thereof is proportional to the amount of enzyme present and thus to the concentration of antibody sought. The strength of the signal is measured using spectrophotometry at a wavelength of 450 nm.

SMILES | mrna remaining at 10 µM [1] [%] | Cexp (coefficient of exposure) [2] | plasma exposure compared with 20E [2] | AUC [3] [ng·h/mL] | Cmax [3] [ng/mL] | Tmax [3] [min] | activity at 10 µM [4] [%] | activity [4] [%]
C/C(=N/OCCN1CCOCC1)[C@H]1CC[C@@]2(O)C3=CC(=O)[C@@H]4C[C@@H](O)[C@@H](O)C[C@]4(C)C3CC[C@]12C (stereo partly drawn) [Compound 31, (2S,3R,5R,10R,13R,14S,17S)-2,3,14-trihydroxy-10,13-dimethyl-17-(C-methyl-N-(2-morpholinoethoxy)carbonimidoyl)-2,3,4,5,9,11,12,15,16,17-decahydro-1H-cyclopenta[a]phenanthren-6-one] | < 70 | 3.7 | better plasma exposure | 281 | 105 | 15 | – | –
CC(NCC1CCCO1)[C@H]1CC[C@@]2(O)C3=CC(=O)[C@@H]4C[C@@H](O)[C@@H](O)C[C@]4(C)C3CC[C@]12C (stereo partly drawn) [Compound 46, (2S,3R,5R,10R,13R,14S,17S)-2,3,14-trihydroxy-10,13-dimethyl-17-[1-(tetrahydrofuran-2-ylmethylamino)ethyl]-2,3,4,5,9,11,12,15,16,17-decahydro-1H-cyclopenta[a]phenanthren-6-one] | < 70 | 2.6 | better plasma exposure | 202 | 40 | 15 | 110 to 129 | ~120
CC([C@H]1CC[C@@]2(O)C3=CC(=O)[C@@H]4C[C@@H](O)[C@@H](O)C[C@]4(C)C3CC[C@]12C)N(CC1CCCO1)C(=O)c1ccco1 (stereo partly drawn) [Compound 63, N-(tetrahydrofuran-2-ylmethyl)-N-[1-[(2S,3R,5R,10R,13R,14S,17S)-2,3,14-trihydroxy-10,13-dimethyl-6-oxo-2,3,4,5,9,11,12,15,16,17-decahydro-1H-cyclopenta[a]phenanthren-17-yl]ethyl]furan-2-carboxamide] | < 70 | – | – | – | – | – | 110 to 129 | ~120
CC([C@H]1CC[C@@]2(O)C3=CC(=O)[C@@H]4C[C@@H](O)[C@@H](O)C[C@]4(C)C3CC[C@]12C)N(CC(F)F)C(=O)c1ccco1 (stereo partly drawn) [Compound 67, N-(2,2-difluoroethyl)-N-[1-[(2S,3R,5R,10R,13R,14S,17S)-2,3,14-trihydroxy-10,13-dimethyl-6-oxo-2,3,4,5,9,11,12,15,16,17-decahydro-1H-cyclopenta[a]phenanthren-17-yl]ethyl]furan-2-carboxamide] | < 70 | – | – | – | – | – | > 130 | 130 to 140
COCCN(C)C(C)[C@H]1CC[C@@]2(O)C3=CC(=O)[C@@H]4C[C@@H](O)[C@@H](O)C[C@]4(C)C3CC[C@]12C (stereo partly drawn) [Compound 76, (2S,3R,5R,10R,13R,14S,17S)-2,3,14-trihydroxy-17-[1-(2-methoxyethyl(methyl)amino)ethyl]-10,13-dimethyl-2,3,4,5,9,11,12,15,16,17-decahydro-1H-cyclopenta[a]phenanthren-6-one] | < 70 | – | – | – | – | – | 110 to 129 | ~120
C[C@]12C[C@H](O)[C@H](O)C[C@H]1C(=O)C=C1C2CC[C@]2(C)[C@@H](C(=O)CN3CCOCC3)CC[C@@]12O (stereo partly drawn) [Compound 81, (2S,3R,5R,10R,13R,14S,17S)-2,3,14-trihydroxy-10,13-dimethyl-17-(2-morpholinoacetyl)-2,3,4,5,9,11,12,15,16,17-decahydro-1H-cyclopenta[a]phenanthren-6-one] | < 70 | – | – | – | – | – | 110 to 129 | ~120
C[C@]12C[C@H](O)[C@H](O)C[C@H]1C(=O)C=C1C2CC[C@]2(C)[C@@H](C(=O)CN3CCC(O)C3)CC[C@@]12O (stereo partly drawn) [Compound 86, (2S,3R,5R,10R,13R,14S,17S)-2,3,14-trihydroxy-17-[2-(3-hydroxypyrrolidin-1-yl)acetyl]-10,13-dimethyl-2,3,4,5,9,11,12,15,16,17-decahydro-1H-cyclopenta[a]phenanthren-6-one] | < 70 | – | – | – | – | – | > 130 | 130 to 140
C[C@]12C[C@H](O)[C@H](O)C[C@H]1C(=O)C=C1C2CC[C@]2(C)[C@@H](C(=O)CN3CCC(O)CC3)CC[C@@]12O (stereo partly drawn) [Compound 88, (2S,3R,5R,10R,13R,14S,17S)-2,3,14-trihydroxy-17-[2-(4-hydroxy-1-piperidyl)acetyl]-10,13-dimethyl-2,3,4,5,9,11,12,15,16,17-decahydro-1H-cyclopenta[a]phenanthren-6-one] | 71 to 85 | – | – | – | – | – | 110 to 129 | ~120
C[C@]12C[C@H](O)[C@H](O)C[C@H]1C(=O)C=C1C2CC[C@]2(C)[C@@H](C(=O)CN3CCC(CCO)CC3)CC[C@@]12O (stereo partly drawn) [Compound 89, (2S,3R,5R,10R,13R,14S,17S)-2,3,14-trihydroxy-17-[2-[4-(2-hydroxyethyl)-1-piperidyl]acetyl]-10,13-dimethyl-2,3,4,5,9,11,12,15,16,17-decahydro-1H-cyclopenta[a]phenanthren-6-one] | < 70 | – | – | – | – | – | > 130 | 130 to 140
CN(C)CCCN(C)CC(=O)[C@H]1CC[C@@]2(O)C3=CC(=O)[C@@H]4C[C@@H](O)[C@@H](O)C[C@]4(C)C3CC[C@]12C (stereo partly drawn) [Compound 91, (2S,3R,5R,10R,13R,14S,17S)-17-[2-(3-dimethylaminopropyl(methyl)amino)acetyl]-2,3,14-trihydroxy-10,13-dimethyl-2,3,4,5,9,11,12,15,16,17-decahydro-1H-cyclopenta[a]phenanthren-6-one] | 71 to 85 | – | – | – | – | – | 110 to 129 | ~120
CCOC(=O)CSCC(=O)[C@H]1CC[C@@]2(O)C3=CC(=O)[C@@H]4C[C@@H](O)[C@@H](O)C[C@]4(C)C3CC[C@]12C (stereo partly drawn) [Compound 92, Ethyl 2-[2-oxo-2-[(2S,3R,5R,10R,13R,14S,17S)-2,3,14-trihydroxy-10,13-dimethyl-6-oxo-2,3,4,5,9,11,12,15,16,17-decahydro-1H-cyclopenta[a]phenanthren-17-yl]ethyl]sulfanylacetate] | < 70 | – | – | – | – | – | 110 to 129 | ~120
C[C@]12C[C@H](O)[C@H](O)C[C@H]1C(=O)C=C1C2CC[C@]2(C)[C@@H](C(=O)CSCCO)CC[C@@]12O (stereo partly drawn) [Compound 94, (2S,3R,5R,10R,13R,14S,17S)-2,3,14-trihydroxy-17-[2-(2-hydroxyethylsulfanyl)acetyl]-10,13-dimethyl-2,3,4,5,9,11,12,15,16,17-decahydro-1H-cyclopenta[a]phenanthren-6-one] | < 70 | – | – | – | – | – | > 130 | 130 to 140
